The record followed here is patent US20220288156A1, “TREATMENT” (QUEEN MARY UNIVERSITY OF LONDON, priority 2019, published 2022).

Each structure is given as a SMILES string.

In assay [1] the test system is AAC model of heart failure. Kind of assay: Abdominal aortic constriction (AAC) pressure overload heart failure model, echocardiography. Type of assay: in vivo, mouse. Particulars: for fractional shortening (FS %): prevention mode. An excerpt:
Abdominal AAC, a common experimental procedure, was used to elicit pressure overload-induced heart failure in murine models. AAC provides a time-dependent, reproducible model of HF characterised by a significant rise in left ventricular weight, deleterious myocardial dilation, and a reduction in cardiac inotropy, and rise in myocardial fibrosis. Physiologically this mimics some of the clinical features of human aortic stenosis.
Male C57BL6 mice (Charles River) underwent AAC surgery at 4-5 weeks of age (between 20 and 22 g). Mice were anaesthetised with isoflurane, placed in a supine position on the procedure table, and an incision made along the ventral underbelly, extending from the xiphoid process of the sternum, down to the groin to reveal the abdominal muscle. The abdominal muscle was then cut the same distance along the linea alba to allow easy reattachment of the two halves. The two sides of the abdominal muscles were clipped back to reveal the abdominal gastrointestinal organs, and these were carefully manoeuvred to expose the underlying abdominal aorta. The aorta was cleaned of visceral fats, and carefully separated from parallel vasculature, whilst avoiding any spinal nerves. The abdominal aorta was then constricted using a 6-0 silk suture tied to the width of a 27-gauge needle at a position rostral to the renal artery bifurcation. Great care was taken to ensure the knot remained taut after tying. This was to ensure minimal variability amongst aortic lumen occlusion between animals, and therefore minimise differences in the degree of aortic stenosis. The skin and abdominal muscles were closed with a 6-0 silk suture thread. SHAM operated mice underwent the same operation with the exception of aortic constriction. In an effort to ensure reproducibility amongst AAC surgeries only male mice weighing between 20 and 22 g (correlating to 4-5 weeks of age) were used. Echocardiography was performed up to 3 days prior to surgery, 3 weeks following surgery, and then at 6 (and/or 12 weeks) following surgery. At the experimental end-point, mice were sacrificed and their lungs, kidneys and hearts excised. Hearts were halved longitudinally and either snap frozen in liquid nitrogen (for immunohistochemistry) or stored in an RNA later stabilisation solution (for RT-quantitative PCR) (ThermoFisher Scientific, Hertfordshire, UK).
Cilengitide (Bachem) was stored as a […] solution in saline at −20° C. prior to use, before thawing and serial diluting to an appropriate concentration with sterile saline for use. Injections were administered 3 times per week at the indicated doses intraperitoneally (IP). Low dose Cilengitide (ldCil) is classified as 50 μg/kg (27).
Cardiac function was assessed by transthoracic echocardiography using a VisualSonics Vevo 770 30-MHz transduction probe. Mice were anaesthetised with isoflurane (1.5% in O2), hair removed from their chest with hair removal cream, and then were placed in a supine position onto a warmed pad (46° C.). The chest was covered in ultrasound gel, and the transduction probe was positioned adjacent to the mitral valve, at the tips of the papillary muscles, and images were taken just below this to ensure positional reproducibility. LV internal diameter (LVID) and LV posterior wall thicknesses at diastole (d) and systole (s) were measured from short-axis M-mode images. LV ejection fraction (EF %) was calculated as follows: LVEF %=[(LVIDd)^3−(LVIDs)^3]/(LVIDd)^3×100; LV fractional shortening (FS %) was calculated as follows: LVFS %=(LVIDd−LVIDs)/LVIDd×100. Values were averaged across three beats. All efforts were made to ensure consistency between mouse echocardiographs, including: pad temperature to be maintained at 46° C., isoflurane anaesthesia at 1.5%, oxygen flow at 1.5 L/M, and cardiac function to be measured in the same anatomical location throughout.

The nature of assay [2]: Mean arterial blood pressure in AAC model. Format: in vivo, mouse. Particulars: intervention mode; 6 weeks post-AAC surgery. Here is the method:
Blood pressure was recorded in anaesthetised mice via intra-arterial cannulation of a carotid artery 6 weeks post-AAC surgery, using a Microtip pressure catheter (Millar instruments). Mice were placed in a supine position on a pre-warmed heating mat (46° C.), and a midline incision made extending the length of the neck with surgical scissors. The large salivary glands were gently moved laterally, and a single carotid artery was located for cannulation. The carotid artery was blunt dissected to remove visceral fats, and then ligated with surgical suture at its most rostral and caudal ends, leaving a space of roughly 2 mm in between. A small incision was made between the two ties using fine dissection spring-tip scissors, and a microtip pressure catheter was inserted into the artery. The region of the artery housing the catheter was tied in place, and the caudal tie loosened to allow blood flow into the pressure catheter. Mice were allowed to recover for 5 min, or until the blood pressure trace steadied. MABP was then averaged across a 30 s period using MATLAB analysis. All efforts were made to ensure mouse body temperature, and levels of anaesthesia in particular, remained constant between animals.

[3] abbreviates: intervention mode, AAC surgery, ldCil 50 μg/kg 3 times a week from 3-6 weeks post-surgery.

For the molecule `CC(C)[C@H]1C(=O)N[C@@H](CCCN=C(N)N)C(=O)NCC(=O)N[C@@H](CC(=O)O)C(=O)N[C@H](Cc2ccccc2)C(=O)N1C` [Cilengitide, c(f*VRGD)], in assay [1] (AAC surgery, ldCil 3-6 weeks post-surgery, between 3 and 6 weeks), the “fractional shortening over time” value is “elevated fractional shortening significantly”. Moreover, the “persistence of fractional shortening rescue after treatment cessation” value in assay [1] (AAC surgery, ldCil 3-6 weeks post-surgery, followed to 12 weeks) was “sustained up until 12 weeks post-surgery”. Moreover, the “FS % over time” value in assay [1] (SHAM surgery, ldCil 3-6 weeks post-surgery, between 3 and 6 weeks or 6 and 12 weeks) is “not significantly altered”. Further, in assay [1] (setting [3]), the “endpoint FS %” value is reported as “rescued”, the “endpoint ejection fraction (EF %)” value is “rescued” and the “endpoint left ventricular internal diameter during systole (LVID)” value was “rescued”. For the same molecule, the “fractional shortening (FS %)” value in assay [1] (AAC surgery, 50 μg/kg IP 3 times a week for 7 weeks immediately after surgery, endpoint 7 weeks) is “restored fractional shortening to that observed in SHAM treated mice”. Also, the “fractional shortening (FS %)” value in assay [1] (AAC surgery, 500 μg/kg IP 3 times a week for 7 weeks) is “but not 500 μg/kg, Cilengitide corrects the fractional shortening effects”. The “fractional shortening (FS %)” value in assay [1] (SHAM surgery, 50 μg/kg IP 3 times a week for 7 weeks) is recorded as “no significant effect”. Besides, the “mean arterial blood pressure (MABP)” value in assay [2] was “not affected”.
